These results are taken from ChEMBL document CHEMBL1142129, “Effect of carbapenem administration on establishment of intestinal colonization by vancomycin-resistant enterococci and Klebsiella pneumoniae in mice” (Antimicrob Agents Chemother, 2007).

Series [1] in a line: Drug level in mouse stool after 3 days. In kind it is ADME, organism-based. As to conditions: read-out: Drug uptake.
For series [2], the system named is Klebsiella pneumoniae. Put plainly: Overgrowth of Klebsiella pneumonia growth in mouse intestine assessed in stool 2 days after 5 day treatment relative to saline. It is filed as functional, organism-based.
In series [3] the test system is Enterococcus. The series is described as follows: Overgrowth of vancomycin-resistant enterococci growth in mouse intestine assessed in stool 2 days after […] treatment relative to saline. It is filed as functional, organism-based.
The subject of series [4] is Klebsiella pneumoniae. The series is described as follows: Inhibition of growth in Klebsiella pneumoniae P62 by mouse colonization study. It is filed as functional.
Series [5] concerns Bacteroides sp. Put plainly: Inhibition of intestinal colonization of Bacteroides sp in mouse assessed in stool after 3 days relative to saline. It is filed as functional, organism-based.
Series [6] has as its system Enterococcus. Put plainly: Inhibition of growth in Vancomycin-resistant Enterococci C68 by mouse colonization study. It is filed as functional.
In series [7] the test system is Enterococcus. The series is described as follows: Overgrowth of vancomycin-resistant enterococci growth in mouse intestine assessed in stool 2 days after 5 days treatment relative to saline. In kind it is functional, organism-based.
The subject of series [8] is Enterococcus. Put plainly: Overgrowth of enterococci in mouse intestine assessed in stool after 3 days. It is filed as functional, organism-based.
The nature of series [9]: Drug level in mouse stool after 5 days. It is filed as ADME, organism-based. As to conditions: read-out: Drug uptake.

≈ marks a conversion by molar mass, not a printed value. Calls of active or inactive are those of the source. No cut-off for these calls is given here. Some results are limits rather than exact numbers.

As to `CO/N=C(\C(=O)N[C@@H]1C(=O)N2C(C(=O)O)=C(CSc3nc(=O)c(=O)[nH]n3C)CS[C@H]12)c1csc(N)n1` [CEFTRIAXONE], the concentration at 72 h in [1] was 93800 ng/g.
On to `CO/N=C(\C(=O)N[C@@H]1C(=O)N2C(C(=O)O)=C(CSc3nc(=O)c(O)nn3C)CS[C@H]12)c1csc(N)n1` [CEFTRIAXONE], for which the result in series [2], in series [3], in series [5], in series [7] and in series [8] was Active. Moreover, the MIC (usually the least concentration at which growth counts as inhibited) in series [4] was 4 µg/mL (≈ 7.21 µM); in series [6] it was greater than 10000 µg/mL.
As for `C[C@@H](O)[C@H]1C(=O)N2C(C(=O)O)=C(S[C@@H]3CN[C@H](C(=O)Nc4cccc(C(=O)O)c4)C3)[C@H](C)[C@H]12` [ERTAPENEM], the result in series [2] and in series [7] was inactive. Besides, the MIC in series [4] is less than 0.25 µg/mL; in [6], greater than 1020 µg/mL. For the same compound, the result in series [5] and in series [8] was Active. The concentration at 120 h in [9] is 10500 ng/g. Further, the concentration at 72 h in [1] is less than 5000 ng/g.
